Experimental data as given in ChEMBL document CHEMBL1201862, “PubChem BioAssay data set” (2004).
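Cultured in 96-well plates, cells were exposed to test compound for 48 hours across five concentrations. The concentration for 50% growth inhibition is given as GI50.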 The source made the active and inactive calls. Cut-off read from the data, not from the text of the source: active = GI50 up to about 1.1 µM and inactive = higher.

What was measured:
Assay in all cases: NCI tumour cell line growth inhibition, 48 h
786-0 = tested on: 786-0
A498 = tested on: A498
ACHN = tested on: ACHN
CCRF-CEM = tested on: CCRF-CEM
DLD-1 = tested on: DLD-1
DMS-114 = tested on: DMS-114
EKVX = tested on: EKVX
HCC 2998 = tested on: HCC 2998
HCT-116 = tested on: HCT-116
HCT-15 = tested on: HCT-15
HOP-62 = tested on: HOP-62
HT-29 = tested on: HT-29
K562 = tested on: K562
KM-20L2 = tested on: KM-20L2
KM12 = tested on: KM12
LOX IMVI = tested on: LOX IMVI
LXFL 529 = tested on: LXFL 529
M14 = tested on: M14
M19-MEL = tested on: M19-MEL
MOLT-4 = tested on: MOLT-4
Malme-3M = tested on: Malme-3M
NCI-H23 = tested on: NCI-H23
NCI-H460 = tested on: NCI-H460
NCI-H522 = tested on: NCI-H522
OVCAR-3 = tested on: OVCAR-3
OVCAR-4 = tested on: OVCAR-4
OVCAR-5 = tested on: OVCAR-5
OVCAR-8 = tested on: OVCAR-8
RPMI-8226 = tested on: RPMI-8226
RXF 393 = tested on: RXF 393
RXF 631 = tested on: RXF 631
SF-268 = tested on: SF-268
SF-295 = tested on: SF-295
SF-539 = tested on: SF-539
SK-MEL-28 = tested on: SK-MEL-28
SK-OV-3 = tested on: SK-OV-3
SN12C = tested on: SN12C
SNB-19 = tested on: SNB-19
SNB-75 = tested on: SNB-75
SNB-78 = tested on: SNB-78
SR = tested on: SR
TK-10 = tested on: TK-10
U-251 = tested on: U-251
UACC-257 = tested on: UACC-257
UACC-62 = tested on: UACC-62
UO-31 = tested on: UO-31
XF498 = tested on: XF498
A549 = tested on: A549
CAKI-1 = tested on: CAKI-1
COLO 205 = tested on: COLO 205
HL-60 = tested on: HL-60
HOP-18 = tested on: HOP-18
IGROV-1 = tested on: IGROV-1
NCI-H226 = tested on: NCI-H226
SK-MEL-2 = tested on: SK-MEL-2
SK-MEL-5 = tested on: SK-MEL-5
SW-620 = tested on: SW-620
DMS-273 = tested on: DMS-273
HOP-92 = tested on: HOP-92

Cc1cc2nc3c(C(OC4OC(CO)C(O)C(O)C4O)C(O)CO)nn(-c4ccc(F)cc4)c3nc2cc1C (stereo not given)
GI50 (786-0): > 100 µM (inactive) | GI50 (A498): > 100 µM (inactive) | GI50 (ACHN): > 100 µM (inactive) | GI50 (CCRF-CEM): > 100 µM (inactive) | GI50 (DLD-1): > 100 µM (inactive) | GI50 (DMS-114): > 100 µM (inactive) | GI50 (EKVX): > 100 µM (inactive) | GI50 (HCC 2998): > 100 µM (inactive) | GI50 (HCT-116): > 100 µM (inactive) | GI50 (HCT-15): > 100 µM | GI50 (HOP-62): > 100 µM (inactive) | GI50 (HT-29): > 100 µM (inactive) | GI50 (K562): > 100 µM (inactive) | GI50 (KM-20L2): > 100 µM (inactive) | GI50 (KM12): > 100 µM (inactive) | GI50 (LOX IMVI): > 100 µM (inactive) | GI50 (LXFL 529): > 100 µM (inactive) | GI50 (M14): > 100 µM (inactive) | GI50 (M19-MEL): > 100 µM (inactive) | GI50 (MOLT-4): > 100 µM (inactive) | GI50 (Malme-3M): > 100 µM (inactive) | GI50 (NCI-H23): > 100 µM (inactive) | GI50 (NCI-H460): > 100 µM (inactive) | GI50 (NCI-H522): > 100 µM (inactive) | GI50 (OVCAR-3): > 100 µM (inactive) | GI50 (OVCAR-4): > 100 µM (inactive) | GI50 (OVCAR-5): > 100 µM (inactive) | GI50 (OVCAR-8): > 100 µM (inactive) | GI50 (RPMI-8226): > 100 µM (inactive) | GI50 (RXF 393): > 100 µM (inactive) | GI50 (RXF 631): > 100 µM (inactive) | GI50 (SF-268): > 100 µM (inactive) | GI50 (SF-295): > 100 µM (inactive) | GI50 (SF-539): > 100 µM (inactive) | GI50 (SK-MEL-28): > 100 µM (inactive) | GI50 (SK-OV-3): > 100 µM (inactive) | GI50 (SN12C): > 100 µM (inactive) | GI50 (SNB-19): > 100 µM (inactive) | GI50 (SNB-75): 80.7 µM (inactive) | GI50 (SNB-78): > 100 µM (inactive) | GI50 (SR): > 100 µM (inactive) | GI50 (TK-10): > 100 µM (inactive) | GI50 (U-251): > 100 µM (inactive) | GI50 (UACC-257): > 100 µM (inactive) | GI50 (UACC-62): > 100 µM (inactive) | GI50 (UO-31): > 100 µM (inactive) | GI50 (XF498): > 100 µM (inactive)

NC(=O)N/N=C(\CCC(=O)N(Cc1ccccc1)Cc1ccccc1)CC(=O)c1ccc(F)cc1
GI50 (786-0): 27.2 µM (inactive) | GI50 (A549): 37.1 µM (inactive) | GI50 (ACHN): > 100 µM (inactive) | GI50 (CAKI-1): > 100 µM (inactive) | GI50 (CCRF-CEM): > 100 µM (inactive) | GI50 (COLO 205): > 100 µM (inactive) | GI50 (DLD-1): > 100 µM (inactive) | GI50 (DMS-114): > 100 µM (inactive) | GI50 (EKVX): > 100 µM (inactive) | GI50 (HCC 2998): > 100 µM (inactive) | GI50 (HCT-116): > 100 µM (inactive) | GI50 (HCT-15): > 100 µM | GI50 (HL-60): > 100 µM (inactive) | GI50 (HOP-18): > 100 µM (inactive) | GI50 (HOP-62): > 100 µM (inactive) | GI50 (HT-29): > 100 µM (inactive) | GI50 (IGROV-1): > 100 µM (inactive) | GI50 (K562): > 100 µM (inactive) | GI50 (KM-20L2): > 100 µM (inactive) | GI50 (KM12): > 100 µM (inactive) | GI50 (LOX IMVI): > 100 µM (inactive) | GI50 (LXFL 529): > 100 µM (inactive) | GI50 (M14): > 100 µM (inactive) | GI50 (M19-MEL): > 100 µM (inactive) | GI50 (MOLT-4): > 100 µM (inactive) | GI50 (Malme-3M): > 100 µM (inactive) | GI50 (NCI-H226): > 100 µM (inactive) | GI50 (NCI-H23): > 100 µM (inactive) | GI50 (NCI-H460): > 100 µM (inactive) | GI50 (OVCAR-3): > 100 µM (inactive) | GI50 (OVCAR-4): > 100 µM (inactive) | GI50 (OVCAR-5): > 100 µM (inactive) | GI50 (OVCAR-8): > 100 µM (inactive) | GI50 (RXF 393): 31.6 µM (inactive) | GI50 (RXF 631): > 100 µM (inactive) | GI50 (SF-268): > 100 µM (inactive) | GI50 (SF-295): > 100 µM (inactive) | GI50 (SF-539): 23.8 µM (inactive) | GI50 (SK-MEL-28): > 100 µM (inactive) | GI50 (SK-MEL-2): > 100 µM (inactive) | GI50 (SK-MEL-5): > 100 µM (inactive) | GI50 (SK-OV-3): > 100 µM (inactive) | GI50 (SN12C): > 100 µM (inactive) | GI50 (SNB-19): > 100 µM (inactive) | GI50 (SNB-78): > 100 µM (inactive) | GI50 (SR): > 100 µM (inactive) | GI50 (SW-620): > 100 µM (inactive) | GI50 (TK-10): > 100 µM (inactive) | GI50 (U-251): > 100 µM (inactive) | GI50 (UACC-257): > 100 µM (inactive) | GI50 (UACC-62): > 100 µM (inactive) | GI50 (UO-31): > 100 µM (inactive)

c1cc(-c2cn[nH]c2)cc(-c2cn[nH]c2)c1
GI50 (786-0): 37.3 µM (inactive) | GI50 (A498): 25.3 µM (inactive) | GI50 (A549): 20.1 µM (inactive) | GI50 (CAKI-1): 8.04 µM (inactive) | GI50 (CCRF-CEM): 29.4 µM (inactive) | GI50 (COLO 205): 53.3 µM (inactive) | GI50 (DLD-1): 33.7 µM (inactive) | GI50 (DMS-114): 45.9 µM (inactive) | GI50 (DMS-273): 30.6 µM (inactive) | GI50 (EKVX): 6.24 µM (inactive) | GI50 (HCC 2998): 88.9 µM (inactive) | GI50 (HCT-116): 20.2 µM (inactive) | GI50 (HCT-15): 28.4 µM | GI50 (HL-60): 30.9 µM (inactive) | GI50 (HOP-62): 17.8 µM (inactive) | GI50 (HOP-92): > 100 µM (inactive) | GI50 (IGROV-1): 51.2 µM (inactive) | GI50 (K562): 43 µM (inactive) | GI50 (KM-20L2): 33 µM (inactive) | GI50 (KM12): 41 µM (inactive) | GI50 (LOX IMVI): 36.8 µM (inactive) | GI50 (M14): 44.6 µM (inactive) | GI50 (M19-MEL): 71.3 µM (inactive) | GI50 (MOLT-4): 33.1 µM (inactive) | GI50 (NCI-H23): 47 µM (inactive) | GI50 (NCI-H460): 41.4 µM (inactive) | GI50 (NCI-H522): 27.2 µM (inactive) | GI50 (OVCAR-3): 33.5 µM (inactive) | GI50 (OVCAR-4): 54 µM (inactive) | GI50 (OVCAR-8): 36.9 µM (inactive) | GI50 (RPMI-8226): 32.7 µM (inactive) | GI50 (RXF 393): 6.44 µM (inactive) | GI50 (RXF 631): 38 µM (inactive) | GI50 (SF-268): 25.8 µM (inactive) | GI50 (SF-295): 39.8 µM (inactive) | GI50 (SF-539): 17.9 µM (inactive) | GI50 (SK-MEL-28): 35.9 µM (inactive) | GI50 (SK-MEL-2): 56 µM (inactive) | GI50 (SK-MEL-5): 32.6 µM (inactive) | GI50 (SK-OV-3): 8.55 µM (inactive) | GI50 (SN12C): 39.4 µM (inactive) | GI50 (SNB-19): 61.1 µM (inactive) | GI50 (SNB-75): 6.76 µM (inactive) | GI50 (SNB-78): 80.7 µM (inactive) | GI50 (SR): 31.8 µM (inactive) | GI50 (SW-620): 30.4 µM (inactive) | GI50 (TK-10): 16.7 µM (inactive) | GI50 (U-251): 46.8 µM (inactive) | GI50 (UACC-257): 90.8 µM (inactive) | GI50 (UACC-62): 11.6 µM (inactive) | GI50 (UO-31): 16 µM (inactive)
